EC50 data for 27 molecules are collected here from patent US20210278408A1, “METHODS OF TREATMENT OF CANCER WITH SUBSTITUTED PYRROLE AND PYRAZOLE COMPOUNDS AND DIAGNOSIS OF CANCERS SUSCEPTIBLE TO TREATMENT WITH SUBSTITUTED PYRROLE AND PYRAZOLE COMPOUNDS” (Bantam Pharmaceutical, LLC, priority 2018, published 2021).

The structures appear in SMILES notation.

The first assay concerns BJAB (malignant human B-cell-line). Put plainly: BJAB cell proliferation. Type of assay: cell-based. Set-up: scale not given here. The settings on record: BJAB (malignant human B-cell-line) cell proliferation, EC50; read-out: BJAB. An excerpt:
In certain embodiments, the therapeutic compound is one of the compounds of the compound table below. […] In certain embodiments, the therapeutic compound is a compound having an activity as “A,” “B” or “C” in the table below. In certain embodiments, the therapeutic compound is a compound having an activity as “A” or “B” in the table below. In certain embodiments, the therapeutic compound is a compound having an activity as “A” in the table below.
In certain embodiments, the therapeutic compound is one of the compounds of the compound table below, optionally provided as a pharmaceutically-acceptable salt or N-oxide, and/or a solvate or hydrate. […] In certain embodiments, the therapeutic compound is a compound having an activity as “A,” “B” or “C” in the table below. In certain embodiments, the therapeutic compound is a compound having an activity as “A” or “B” in the table below. In certain embodiments, the therapeutic compound is a compound having an activity as “A” in the table below.
Turning to `Cc1nn(-c2nc(C3=CCC(C)CC3)c(SC(C)C)s2)c(C(=O)O)c1-c1cccc(F)c1` (stereo not drawn) [Compound B4, 4-(3-fluorophenyl)-1-(5-(isopropylthio)-4-(4-methylcyclohex-1-en-1-yl)thiazol-2-yl)-3-methyl-1H-pyrazole-5-carboxylic acid], the EC50 fell in the range of 1 to 5 µM.
On the same count and under the same terms, the same measure for `CCOCCOCCOc1ccc(-c2sc(-n3nc(C)c(-c4cccc(F)c4)c3C(=O)O)nc2-c2ccc(C(F)(F)F)cc2)cc1` [Compound B58, 1-(5-(4-(2-(2-ethoxyethoxy)ethoxy)phenyl)-4-(4-(trifluoromethyl)phenyl)thiazol-2-yl)-4-(3-fluorophenyl)-3-methyl-1H-pyrazole-5-carboxylic acid]: 1 to 5 µM; for `CC(=O)N1CCN(c2nc(-n3nc(C)c(-c4cccc(F)c4)c3C(=O)O)sc2SC(C)C)CC1` [Compound B27, 1-(4-(4-acetylpiperazin-1-yl)-5-(isopropylthio)thiazol-2-yl)-4-(3-fluorophenyl)-3-methyl-1H-pyrazole-5-carboxylic acid]: greater than 20 µM; for `COCCOC1(C(F)(F)F)CCN(c2nc(-n3nc(C)c(-c4cccc(F)c4)c3C(=O)O)sc2SC(C)C)CC1` [Compound B48, 4-(3-fluorophenyl)-1-(5-(isopropylthio)-4-(4-(2-methoxyethoxy)-4-(trifluoromethyl)piperidin-1-yl)thiazol-2-yl)-3-methyl-1H-pyrazole-5-carboxylic acid]: 1 to 5 µM.
`Cc1cc(C(=O)O)n(-c2nc(-c3ccc(Cl)c(OC4COC4)c3)c(SC(C)C)s2)n1` [Compound B2, 1-(4-(4-chloro-3-(oxetan-3-yloxy)phenyl)-5-(isopropylthio)thiazol-2-yl)-3-methyl-1H-pyrazole-5-carboxylic acid]: the EC50 is greater than 40 µM.
With `COCC(=O)Nc1ccc(-c2sc(-n3nc(C)c(-c4cccc(F)c4)c3C(=O)O)nc2-c2ccc(C(F)(F)F)cc2)cc1` [Compound B51, 4-(3-fluorophenyl)-1-(5-(4-(2-methoxyacetamido)phenyl)-4-(4-(trifluoromethyl)phenyl)thiazol-2-yl)-3-methyl-1H-pyrazole-5-carboxylic acid], the EC50 fell in the range of 10 to 25 µM.
Still for that read-out and setting: the same measure for `COCCN(C)c1sc(-n2nc(C)c(-c3cccc(F)c3)c2C(=O)O)nc1-c1ccc(C(F)(F)F)cc1` [Compound B31, 4-(3-fluorophenyl)-1-(5-((2-methoxyethyl)(methyl)amino)-4-(4-(trifluoromethyl)phenyl)thiazol-2-yl)-3-methyl-1H-pyrazole-5-carboxylic acid]: 1 to 5 µM; for `COCC(=O)N(C)c1ccc(-c2sc(-n3nc(C)c(-c4cccc(F)c4)c3C(=O)O)nc2-c2ccc(C(F)(F)F)cc2)cc1` [Compound B55, 4-(3-fluorophenyl)-1-(5-(4-(2-methoxy-N-methylacetamido)phenyl)-4-(4-(trifluoromethyl)phenyl)thiazol-2-yl)-3-methyl-1H-pyrazole-5-carboxylic acid]: greater than 20 µM.
Same read-out and setting: the same measure for `Cc1nnc(-c2ccc(-c3nc(-n4nc(C)c(-c5cccc(F)c5)c4C(=O)O)sc3SC(C)C)cc2)o1` [Compound B3, 4-(3-fluorophenyl)-1-(5-(isopropylthio)-4-(4-(5-methyl-1,3,4-oxadiazol-2-yl)phenyl)thiazol-2-yl)-3-methyl-1H-pyrazole-5-carboxylic acid]: 25 to 50 µM.
Take `Cc1nn(-c2nc(-c3ccc(C(F)(F)F)cc3)c(-c3cccc(F)c3)s2)c(C(=O)O)c1-c1cccc(F)c1` [Compound B59, 4-(3-fluorophenyl)-1-(5-(3-fluorophenyl)-4-(4-(trifluoromethyl)phenyl)thiazol-2-yl)-3-methyl-1H-pyrazole-5-carboxylic acid]: the EC50 is less than 1 µM.
Turning to `COc1nn(-c2nc(-c3ccc(C(F)(F)F)cc3)c(SC(C)C)s2)c(C(=O)O)c1-c1cccc(F)c1` [Compound B13, 4-(3-fluorophenyl)-1-(5-(isopropylthio)-4-(4-(trifluoromethyl)phenyl)thiazol-2-yl)-3-methoxy-1H-pyrazole-5-carboxylic acid], the EC50 was in the range of 1 to 5 µM.
Same read-out and setting: the same measure for `COc1ccc(-c2sc(-n3nc(C)c(-c4cccc(F)c4)c3C(=O)O)nc2-c2ccc(C(F)(F)F)cc2)cc1` [Compound B45, 4-(3-fluorophenyl)-1-(5-(4-methoxyphenyl)-4-(4-(trifluoromethyl)phenyl)thiazol-2-yl)-3-methyl-1H-pyrazole-5-carboxylic acid]: less than 1 µM.
On the same count and under the same terms, the same measure for `Cc1nn(-c2nc(-c3ccc(C(F)(F)F)cc3)c(C(C)O)s2)c(C(=O)O)c1-c1cccc(F)c1` (stereo not drawn) [Compound B63, 4-(3-fluorophenyl)-1-(5-(1-hydroxyethyl)-4-(4-(trifluoromethyl)phenyl)thiazol-2-yl)-3-methyl-1H-pyrazole-5-carboxylic acid]: greater than 20 µM; for `Cc1nn(-c2nc(N3CCC(C#N)CC3)c(SC(C)C)s2)c(C(=O)O)c1-c1cccc(F)c1` [Compound B24, 1-(4-(4-cyanopiperidin-1-yl)-5-(isopropylthio)thiazol-2-yl)-4-(3-fluorophenyl)-3-methyl-1H-pyrazole-5-carboxylic acid]: 10 to 25 µM; for `COc1ccc(-c2nc(-n3nc(C)c(-c4cccc(F)c4)c3C(=O)O)sc2-c2ccc(C(F)(F)F)cc2)cc1` [Compound B43, 4-(3-fluorophenyl)-1-(4-(4-methoxyphenyl)-5-(4-(trifluoromethyl)phenyl)thiazol-2-yl)-3-methyl-1H-pyrazole-5-carboxylic acid]: 1 to 5 µM.
On the same count and under the same terms, the same measure for `Cc1nn(-c2nc(-c3ccc(Cl)c(Cl)c3)nn2CC(C)C)c(C(=O)O)c1-c1cccc(F)c1` [Compound B17, 1-(3-(3,4-dichlorophenyl)-1-isobutyl-1H-1,2,4-triazol-5-yl)-4-(3-fluorophenyl)-3-methyl-1H-pyrazole-5-carboxylic acid]: greater than 20 µM; for `Cc1nn(-c2nc(C3CCC(C(F)(F)F)CC3)cs2)c(C(=O)O)c1-c1cccc(F)c1` (stereo not drawn) [Compound B21, 4-(3-fluorophenyl)-3-methyl-1-(4-(4-(trifluoromethyl)cyclohexyl)thiazol-2-yl)-1H-pyrazole-5-carboxylic acid]: greater than 20 µM; for `CC(C)=Cc1nc(-n2nc(C)c(-c3cccc(F)c3)c2C(=O)O)sc1-c1ccc(C(F)(F)F)cc1` [Compound B37, 4-(3-fluorophenyl)-3-methyl-1-(4-(2-methylprop-1-en-1-yl)-5-(4-(trifluoromethyl)phenyl)thiazol-2-yl)-1H-pyrazole-5-carboxylic acid]: 10 to 25 µM.
For `Cc1nn(-c2nc(N3CCN(C(C)(C)C)C(=O)C3)c(SC(C)C)s2)c(C(=O)O)c1-c1cccc(F)c1` [Compound B46, 1-(4-(4-(tert-butyl)-3-oxopiperazin-1-yl)-5-(isopropylthio)thiazol-2-yl)-4-(3-fluorophenyl)-3-methyl-1H-pyrazole-5-carboxylic acid], the EC50 is greater than 20 µM.
On the same count and under the same terms, the same measure for `Cc1nn(-c2nc(C3=CCC(C)(C)CC3)c(SC(C)C)s2)c(C(=O)O)c1-c1cccc(F)c1` [Compound B6, 1-(4-(4,4-dimethylcyclohex-1-en-1-yl)-5-(isopropylthio)thiazol-2-yl)-4-(3-fluorophenyl)-3-methyl-1H-pyrazole-5-carboxylic acid]: less than 1 µM; for `Cc1nn(-c2nc(N3CCN(C(=O)OC(C)(C)C)CC3)c(SC(C)C)s2)c(C(=O)O)c1-c1cccc(F)c1` [Compound B33, 1-(4-(4-(tert-butoxycarbonyl)piperazin-1-yl)-5-(isopropylthio)thiazol-2-yl)-4-(3-fluorophenyl)-3-methyl-1H-pyrazole-5-carboxylic acid]: greater than 20 µM; for `Cc1nn(-c2nc(-c3ccc(C(F)(F)F)cc3)c(SC(C)C)s2)c(C)c1-c1cccc(F)c1` [Compound B10, 2-(4-(3-fluorophenyl)-3,5-dimethyl-1H-pyrazol-1-yl)-5-(isopropylthio)-4-(4-(trifluoromethyl)phenyl)thiazole]: greater than 40 µM.
As to `Cc1nn(-c2nc(-c3ccc(C(F)(F)F)cc3)c(-c3ccc(C(F)(F)F)cc3)s2)c(C(=O)O)c1-c1cccc(F)c1` [Compound B38, 1-(4,5-bis(4-(trifluoromethyl)phenyl)thiazol-2-yl)-4-(3-fluorophenyl)-3-methyl-1H-pyrazole-5-carboxylic acid], the EC50 was less than 1 µM.
Still for that read-out and setting: the same measure for `Cc1nn(-c2nc(N3CCC(C)CC3)c(SC(C)C)s2)c(C(=O)O)c1-c1cccc(F)c1` [Compound B28, 4-(3-fluorophenyl)-1-(5-(isopropylthio)-4-(4-methylpiperidin-1-yl)thiazol-2-yl)-3-methyl-1H-pyrazole-5-carboxylic acid]: 1 to 5 µM.

The same assay, now with this note: BJAB cell proliferation.
Turning to `Cc1nn(-c2nc(-c3ccc(C#N)cc3)c(SC(C)C)s2)c(C(=O)O)c1-c1cccc(F)c1` [Compound A213, 1-(4-(4-cyanophenyl)-5-(isopropylthio)thiazol-2-yl)-4-(3-fluorophenyl)-3-methyl-1H-pyrazole-5-carboxylic acid], the EC50 entry was “C-”.
Consider `Cc1nn(-c2nc(-c3ccc(Cl)c(Cl)c3)c(SC(C)C)s2)c(C(=O)O)c1-c1cccc(F)c1` [Compound A151, 1-(4-(3,4-dichlorophenyl)-5-(isopropylthio)thiazol-2-yl)-4-(3-fluorophenyl)-3-methyl-1H-pyrazole-5-carboxylic acid], for which the EC50 result was “A, B”.

Staying with this assay, now noted: Homo sapiens; BJAB cell proliferation; read-out: EC50.
In the case of `Cc1nn(-c2nc(-c3ccc(OC(F)(F)F)cc3)c(SC(C)C)s2)c(C(=O)O)c1-c1cccc(F)c1` [Compound A223, 4-(3-fluorophenyl)-1-(5-(isopropylthio)-4-(4-(trifluoromethoxy)phenyl)thiazol-2-yl)-3-methyl-1H-pyrazole-5-carboxylic acid], the EC50 fell in the range of 1 to 5 µM.
